Results on twelve molecules are retold here after ChEMBL document CHEMBL5352474, “Synthesis and in vitro antileishmanial activity of alkylene-linked nitrofurantoin-triazole hybrids” (Eur J Med Chem, 2023).

In series [1] the test system is Leishmania donovani. Nature of the series: Antileishmanial activity against Leishmania donovani 9515 promastigotes assessed as inhibition of parasite growth incubated for 48 hrs by resazurin dye based assay. In kind it is functional, organism-based. Particulars: Leishmania donovani, 9515, 48 h. A general note: The colour change of resazurin is a common sign of viable cells or microbes.

Series [2] relates to Leishmania major. Nature of the series: Antileishmanial activity against Leishmania major IR-173 promastigotes assessed as inhibition of parasite growth incubated for 48 hrs by resazurin dye based assay. Particulars: IR-173, 48 h. In kind it is functional, organism-based.
A short description of series [3]: in vitro. Particulars: monkey.
Description: Selectivity index, ratio of IC50 for cytotoxicity against African green monkey Vero cells to IC50 for leishmanicidal activity against Leishmania donovani 9515 amastigote infected in human THP-1 cells
Series [4] can be described thus: Selectivity index, ratio of IC50 for antileishmanial activity against Leishmania major IR-173 promastigotes to IC50 for antileishmanial activity against Leishmania major IR-173 amastigote infected in human THP-1 cells assessed as static activity. The series is classed as functional.
Series [5] is described as follows: in vitro. Particulars: monkey, Vero cells.
Description: Selectivity index, ratio of IC50 for cytotoxicity against African green monkey Vero cells to IC50 for antileishmanial activity against Leishmania major IR-173 promastigote
For series [6], the system named is Leishmania major. Nature of the series: Antileishmanial activity against Leishmania major IR-173 amastigote infected in human THP-1 cells assessed as static activity by measuring inhibition of parasite growth incubated for 72 hrs by resazurin dye based assay. In kind it is functional, organism-based. Particulars: IR-173, THP-1, 72 h.
In series [7] the test system is Leishmania donovani. Briefly: Leishmanicidal activity against Leishmania donovani 9515 amastigote infected in human THP-1 cells incubated for 72 hrs by resazurin dye based analysis. In kind it is functional, organism-based. Particulars: Leishmania donovani, 9515, THP-1, 72 h.
Series [8] is described as follows: Selectivity index, ratio of IC50 for antileishmanial activity against Leishmania major IR-173 promastigotes to IC50 for leishmanicidal activity against Leishmania major IR-173 amastigote infected in human THP-1 cells. In kind it is functional.
Series [9] is described as follows: Selectivity index, ratio of IC50 for cytotoxicity against African green monkey Vero cells to IC50 for leishmanicidal activity against Leishmania major […] amastigote infected in human THP-1 cells. The series is classed as toxicity, cell-based. Particulars: read-out: Ratio IC50.
Series [10] has as its system Leishmania major. Briefly: Leishmanicidal activity against Leishmania major IR-173 amastigote infected in human THP-1 cells incubated for 72 hrs by resazurin dye based analysis. The series is classed as functional, organism-based. Particulars: IR-173, THP-1, 72 h.
Series [11] can be described thus: in vitro. The following applies: monkey, Vero cells. The source holds these as a separate data set.
Description: Selectivity index, ratio of IC50 for cytotoxicity against African green monkey Vero cells to IC50 for antileishmanial activity against Leishmania major IR-173 amastigote infected in human THP-1 cells assessed as static activity
Series [12] is described as follows: in vitro. The following applies: African green monkey.
Series [13] has as its system Leishmania donovani. Nature of the series: Antileishmanial activity against Leishmania donovani 9515 amastigote infected in human THP-1 cells assessed as static activity by measuring inhibition of parasite growth incubated for 72 hrs by resazurin dye based assay. In kind it is functional, organism-based. Particulars: Leishmania donovani, 9515, THP-1, 72 h.
Series [14] can be described thus: in vitro. Particulars: human.
Series [15] is described as follows: Selectivity index, ratio of IC50 for cytotoxicity against HEK293 cells to IC50 for antileishmanial activity against Leishmania major IR-173 promastigotes. In kind it is toxicity, cell-based. Particulars: human, read-out: Ratio IC50.
The nature of series [16]: Cytotoxicity against HEK293 cells assessed as inhibition of cell growth incubated for 48 hrs by resazurin dye based assay. In kind it is toxicity. The following applies: human.
Series [17] is described as follows: Selectivity index, ratio of IC50 for cytotoxicity against African green monkey Vero cells to IC50 for antileishmanial activity against Leishmania donovani 9515 amastigote infected in human THP-1 cells assessed as static activity. In kind it is toxicity, cell-based. Particulars: read-out: Ratio IC50.
A short description of series [18]: Selectivity index, ratio of IC50 for cytotoxicity against HEK293 cells to IC50 for antileishmanial activity against Leishmania donovani 9515 promastigotes. In kind it is toxicity, cell-based. Particulars: human, read-out: Ratio IC50.
A short description of series [19]: in vitro. Particulars: monkey, Vero cells. The source holds these as a separate data set.
Description: Selectivity index, ratio of IC50 for cytotoxicity against African green monkey Vero cells to IC50 for antileishmanial activity against Leishmania donovani 9515 promastigotes
Series [20] is described as follows: Selectivity index, ratio of IC50 for antileishmanial activity against Leishmania donovani 9515 promastigotes to IC50 for leishmanicidal activity against Leishmania donovani 9515 amastigote infected in human THP-1 cells. The series is classed as functional.
The nature of series [21]: Selectivity index, ratio of IC50 for antileishmanial activity against Leishmania donovani 9515 promastigotes to IC50 for antileishmanial activity against Leishmania donovani 9515 amastigote infected in human THP-1 cells assessed as static activity. The series is classed as functional.

The IC50 is the concentration at which inhibition is half-maximal. On to `O=Cc1ccc([N+](=O)[O-])o1`, for which the IC50 is over 10 µM with Leishmania donovani [1]; 7.28 µM in the series with Leishmania major [2]; 8.35 µM in the series on Leishmania major [6]; 2.68 µM in the series on Leishmania donovani [7]; 5.6 µM with Leishmania major [10]; 8.56 µM in the series on Leishmania donovani [13]. Moreover, the selectivity ratio in the series “in vitro [3]” (Vero cells) came out at 9; in the series “in vitro [5]”, 3; in [9], 4; in “in vitro [11]” it was 3. For the same molecule, the “Ratio IC50” value in series [4] turned out to be 0.87; in series [8], 1.3. This molecule also had an IC50 at 48 h in the series “in vitro [12]” (Vero cells) of 23.2 µM.

As for `CCCCCc1cn(CCCCCN2C(=O)CN(/N=C/c3ccc([N+](=O)[O-])o3)C2=O)nn1`, the IC50 in the series with Leishmania donovani [1] was over 10 µM; in the series with Leishmania major [2], 1.07 µM; with Leishmania major [6], over 10 µM; in the series with Leishmania donovani [7], over 10 µM; in the series with Leishmania major [10], 6.56 µM; in the series with Leishmania donovani [13], over 10 µM. In addition, the figures for the IC50 at 48 h (in “in vitro [14]” (THP-1 cells); in [16]; in the series “in vitro [12]” (Vero cells)) were 70 µM, 12 µM and 72.8 µM, respectively. For the same molecule, the “Ratio IC50” value in [8] was 0.2. In addition, the selectivity ratio in series [9] and in [15] was 11 in each case.

Regarding `COc1ccc(-c2cn(CCCN3C(=O)CN(/N=C/c4ccc([N+](=O)[O-])o4)C3=O)nn2)cc1`, the IC50 was over 10 µM in the series on Leishmania donovani [1]; 0.8 µM in the series on Leishmania major [2]; over 10 µM in the series on Leishmania major [6]; over 10 µM in the series on Leishmania donovani [7]; 9.75 µM in the series on Leishmania major [10]; over 10 µM with Leishmania donovani [13]. The IC50 at 48 h in “in vitro [14]” (THP-1 cells) is over 100 µM; in series [16], 10.8 µM; in “in vitro [12]” (Vero cells), over 100 µM. The “Ratio IC50” value in series [8] was 0.1. Moreover, the selectivity ratio was over 10 in series [9] and 13 in [15].

Regarding `CCCCCCc1cn(CCCN2C(=O)CN(/N=C/c3ccc([N+](=O)[O-])o3)C2=O)nn1`, the IC50 is over 10 µM in the series with Leishmania donovani [1]; 0.48 µM in the series with Leishmania major [2]; 0.84 µM in the series on Leishmania major [6]; over 10 µM with Leishmania donovani [7]; over 10 µM in the series with Leishmania major [10]; over 10 µM with Leishmania donovani [13]. Also, the figures for the IC50 at 48 h (in the series “in vitro [14]” (THP-1 cells); in [16]; in “in vitro [12]” (Vero cells)) were 38.5 µM, 16.5 µM and over 100 µM, respectively. For the same molecule, the “Ratio IC50” value in series [4] is 0.7. The values for the selectivity ratio (in series [15]; in the series “in vitro [11]”) were 34 and 119, respectively.

On to `CCCCCc1cn(CCCN2C(=O)CN(/N=C/c3ccc([N+](=O)[O-])o3)C2=O)nn1`, for which the 50% inhibitory concentration (IC50) in the series on Leishmania donovani [1] is over 10 µM; in the series with Leishmania major [2], 0.55 µM; in the series on Leishmania major [6], 0.61 µM; in the series with Leishmania donovani [7] it was over 10 µM; in the series on Leishmania major [10], over 10 µM; in the series on Leishmania donovani [13] it was over 10 µM. Moreover, the results for the 50% inhibitory concentration (IC50) at 48 h (in “in vitro [14]” (THP-1 cells); in series [16]; in the series “in vitro [12]” (Vero cells)) were 50.6 µM, 35.6 µM and over 100 µM, respectively. In addition, the “Ratio IC50” value in series [4] worked out at 0.8. Also, the figures for the selectivity ratio (in series [15]; in “in vitro [11]”) were 74 and 164, respectively.

Consider `CCCCc1cn(CCCN2C(=O)CN(/N=C/c3ccc([N+](=O)[O-])o3)C2=O)nn1`, for which the selectivity ratio was 99 in series [17], 98 in series [15] and 30 in the series “in vitro [11]”. In addition, the IC50 in the series with Leishmania donovani [1] is over 10 µM; in the series with Leishmania major [2], 0.45 µM; in the series with Leishmania major [6] it was 3.34 µM; with Leishmania donovani [7], over 10 µM; with Leishmania major [10], over 10 µM; in the series on Leishmania donovani [13], 1.01 µM. Further, the IC50 at 48 h in the series “in vitro [14]” (THP-1 cells) is 52.5 µM; in [16] it was 43.9 µM; in “in vitro [12]” (Vero cells), over 100 µM. Besides, the “Ratio IC50” value in [4] was 0.2.

For `COc1ccc(-c2cn(CCCCCCN3C(=O)CN(/N=C/c4ccc([N+](=O)[O-])o4)C3=O)nn2)cc1`, the IC50 in the series with Leishmania donovani [1] was 0.23 µM; with Leishmania major [2], 0.59 µM; in the series on Leishmania major [6] it was over 10 µM; in the series with Leishmania donovani [7], over 10 µM; in the series on Leishmania major [10], over 10 µM; in the series with Leishmania donovani [13] it was over 10 µM. Further, the selectivity ratio in series [18] stood at 23; in series [15] it was 9. Besides, the IC50 at 48 h in [16] came to 5.39 µM.

`O=C1CN(/N=C/c2ccc([N+](=O)[O-])o2)C(=O)N1CCCn1cc(CSc2ccccc2)nn1`: the IC50 with Leishmania donovani [1] is over 10 µM; with Leishmania major [2] it was 0.67 µM; with Leishmania major [6], over 10 µM; with Leishmania donovani [7], 9.9 µM; in the series with Leishmania major [10], 3.98 µM; with Leishmania donovani [13], over 10 µM. The IC50 at 48 h is 6.65 µM in “in vitro [14]” (THP-1 cells), 37.4 µM in series [16] and 3.86 µM in the series “in vitro [12]” (Vero cells). Moreover, the “Ratio IC50” value in series [8] is reported as 0.2. In addition, the selectivity ratio in [9] was determined as 1; in series [15] it was 56.

For `CCCCc1cn(CCCCCN2C(=O)CN(/N=C/c3ccc([N+](=O)[O-])o3)C2=O)nn1`, the IC50 in the series on Leishmania donovani [1] is over 10 µM; in the series on Leishmania major [2] it was 0.44 µM; with Leishmania major [6] it was over 10 µM; in the series on Leishmania donovani [7] it was 1.68 µM; in the series on Leishmania major [10], 5.69 µM; with Leishmania donovani [13], over 10 µM. For the same molecule, the figures for the selectivity ratio (in the series “in vitro [3]” (Vero cells); in series [9]; in series [15]) were 19, 6 and over 227, respectively. Moreover, the half-maximal inhibitory concentration (IC50) at 48 h in “in vitro [14]” (THP-1 cells) was over 100 µM; in series [16] it was over 100 µM; in “in vitro [12]” (Vero cells), 31.6 µM. In addition, the “Ratio IC50” value in series [8] is 0.1.

Turning to `O=C1OCCN1/N=C/c1ccc([N+](=O)[O-])o1` [FURAZOLIDONE], the selectivity ratio was found to be 357 in “in vitro [19]”, 60 in “in vitro [3]” (Vero cells), 270 in “in vitro [5]” and 17 in the series “in vitro [11]”. The “Ratio IC50” value in series [20] worked out at 0.2; in series [21], 0.1; in series [4] it was 0.1. The IC50 at 48 h in “in vitro [14]” (THP-1 cells) and in “in vitro [12]” (vero) was over 100 µM throughout. In addition, the IC50 was 5.75 µM in the series on Leishmania major [6], 1.68 µM in the series with Leishmania donovani [7], over 10 µM in the series on Leishmania major [10] and 4.94 µM with Leishmania donovani [13].

With `O=C1CN(/N=C/c2ccc([N+](=O)[O-])o2)C(=O)N1` [NITROFURANTOIN], the IC50 in the series with Leishmania donovani [1] was over 10 µM; with Leishmania major [2], over 10 µM; with Leishmania major [6] it was over 10 µM; with Leishmania donovani [7], 3.57 µM; in the series on Leishmania major [10], over 10 µM; in the series with Leishmania donovani [13], over 10 µM. For the same molecule, the selectivity ratio in “in vitro [3]” was found to be 28. Also, the IC50 at 48 h in the series “in vitro [14]” (thp-1) and in the series “in vitro [12]” (vero) was over 100 µM in each case.

On to `NC(=O)N/N=C/c1ccc([N+](=O)[O-])o1` [NITROFURAZONE], for which the selectivity ratio in “in vitro [19]” turned out to be 54; in the series “in vitro [3]” (Vero cells), 37; in “in vitro [5]” it was 54; in the series “in vitro [11]”, 36. The “Ratio IC50” value in series [20] is given as 0.3; in [21], 0.2; in series [4], 0.12; in [8], 0.1. Moreover, the IC50 at 48 h in the series “in vitro [14]” (THP-1 cells) and in “in vitro [12]” (Vero cells) was over 100 µM throughout. Also, the IC50 was 2.8 µM with Leishmania major [6], 2.7 µM in the series on Leishmania donovani [7], 5.6 µM in the series with Leishmania major [10] and 4.11 µM in the series with Leishmania donovani [13].
